pEC50: −log10 of the molar value.
Assays:
Type in all cases: cell-based
DENV-1 strain TC974#666 = assay: Tetravalent RT-qPCR assay Protocol A, serotype 1; conditions: Dengue virus, DENV1, 72 h, RT-qPCR serotype 1 TC974#666, Vero cells, 3 days
Protocol: The antiviral activity of the compounds of the invention was tested against DENV-1 strain TC974#666 (NCPV), DENV-2 strain 16681, DENV-3 strain H87 (NCPV) and DENV-4 strains H241 (NCPV) and EDEN (SG/06K2270DK1/2005; GenBank accession number QG398256) in a RT-qPCR assay. Therefore, Vero cells were infected with either DENV-1, or -2, or -3, or -4 in the presence or absence of test compounds. At day 3 post-infection, the cells were lysed and cell lysates were used to prepare cDNA of both a viral target (the 3′UTR of DENV; table 2) and a cellular reference gene (β-actin, table 2). Subsequently, a duplex real time PCR was performed on a Lightcycler480 instrument. The generated Cp value is inversely proportional to the amount of RNA expression of these targets. Inhibition of DENV replication by a test compound result in a shift of Cp's for the 3′UTR gene. On the other hand, if a test compound is toxic to the cells, a similar effect on β-actin expression will be observed. The comparative ΔΔCp method is used to calculate EC50, which is based on the relative gene expression of the target gene (3′UTR) normalized with the cellular housekeeping gene (β-actin). In addition, CC50 values were determined based on the Cp values acquired for the housekeeping gene β-actin.
The culture medium consisted of minimal essential medium supplemented with 2% of heat-inactivated fetal calf serum, 0.04% gentamycin (50 mg/mL) and 2 mM of L-glutamine. Vero cells, obtained from ECACC, were suspended in culture medium and 75 μL/well was added in 96-well plates (10000 cells/well), which already contain the antiviral compounds. Typically, these plates contain a 4-fold serial dilution of 9 dilution steps of the test compound at 200 times the final concentration in 100% DMSO (500 nL; final concentration range: 25 μM-0.00038 μM). In addition, each plate contains wells which are assigned as virus controls (containing cells and virus in the absence of compound) and cell controls (containing cells in the absence of virus and compound). Once the cells were added in the plates, the plates were incubated in a fully humidified incubator (37° C., 5% CO2) until the next day. Then, DENV-1 strain TC974#666, DENV-2 strain 16681, DENV-3 strain H87 or DENV-4 strains H241 or EDEN were added. […] In parallel, 25 μL of culture medium was added to the cell controls. Next, the plates were incubated for 3 days in a fully humidified incubator (37° C., 5% CO2). After 3 days, the supernatant was removed from the wells and the cells were washed twice with ice-cold PBS (˜100 μL). The cell pellets within the 96-well plates were stored at −80° C. for at least 1 day. Next, RNA was extracted using the Cells-to-CT™ lysis kit, according to the manufacture's guideline (Applied Biosystems). The cell lysates can be stored at −80° C. or immediately used in the reverse transcription step.
In preparation of the reverse transcription step, mix A (table 3A) was prepared and 7.57 μL/well was dispensed in a 96-well plate. After addition of 5 μL of the cell lysates, a five minute denaturation step at 75° C. was performed (table 3B). Afterwards, 7.43 μL of mix B was added (table 3C) and the reverse transcription step was initiated (table 3D) to generate cDNA.
Finally, a RT-qPCR mix was prepared, mix C (table 4A), dispensed in 96-well LightCycler qPCR plates to which 3 μL of cDNA was added and the qPCR was performed according to the conditions in table 4B on a LightCycler 480.
Using the LightCycler software and an in-house LIMS system, dose response curves for each compound were calculated and the half maximal effective concentration (EC50) and the half maximal cytotoxic concentration (CC50) were determined (Tables 6-9).

DENV-2 NGC-Tongalike = assay: Tetravalent RT-qPCR assay Protocol B, serotype 2; conditions: Dengue virus, DENV2, Vero, 96 h
Protocol: (§1) Vero cells (4×10^4) were seeded in 96-well plates. After one day, cell culture medium was replaced with 100 μL assay medium containing a 2×, 3× or 5× serial dilution of the compound (concentration range: 50 μg/mL-0.00038 μg/mL, 50 μg/mL-0.0076 μg/mL, and 50 μg/mL-0.00013 μg/mL, respectively) and 100 μL of dengue virus dilution, where a Ct of ˜20 is achieved in RTqPCR. Following a 2 hour incubation period, the cell monolayer was washed 3 times with assay medium to remove residual, non-adsorbed virus and cultures were further incubated for either 4 days (DENV-2 NGC-Tongalike) or 7 days (DENV-1 Djibouti strain D1/H/IMTSSA/98/606, DENV-3 strain H87 prototype, DENV-4 strain H241) in the presence of the inhibitor. Supernatant was harvested and viral RNA load was determined by real-time quantitative RT-PCR. The 50% effective concentration (EC50), which is defined as the compound concentration that is required to inhibit viral RNA replication by 50%, was determined using logarithmic interpolation (Tables 7 and 8).
(§2) RNA was isolated from 100 μL supernatant with the NucleoSpin 96 Virus kit (Filter Service, Düren, Germany) as described by the manufacturer. The sequences of the TaqMan primers (DENV-For, DENV-Rev; Table 5) and TaqMan probes (DENV-Probe Table 5) were selected from non-structural gene 3 (NS3) or NSS, of the respective flaviviruses using Primer Express software (version 2.0; Applied Biosystems, Lennik, Belgium). The TaqMan probe was fluorescently labelled with 6-carboxyfluorescein (FAM) at the 5′ end as the reporter dye, and with minor groove binder (MGB) at the 3′ end as the quencher (Table 5). One-step, quantitative RT-PCR was performed in a total volume of 25 μL, containing 13.9375 μL H2O, 6.25 μL master mix (Eurogentec, Seraing, Belgium), 0.375 μL forward primer, 0.375 μL reverse primer, 1 μL probe, 0.0625 μL reverse transcriptase (Eurogentec) and 3 μL sample. RT-PCR was performed using the ABI 7500 Fast Real-Time PCR System (Applied Biosystems, Branchburg, N.J., USA) using the following conditions: 30 min at 48° C. and 10 min at 95° C., followed by 40 cycles of 15 s at 95° C. and 1 min at 60° C. The data was analyzed using the ABI PRISM 7500 SDS software (version 1.3.1; Applied Biosystems). For absolute quantification, standard curves were generated using 10-fold dilutions of template preparations of known concentrations.

[1] = system: DENV-3 strain H87 prototype; assay: Tetravalent RT-qPCR assay Protocol B, serotype 3; conditions: Dengue virus, DENV3, 168 h, RT-qPCR serotype 3 H87, Vero cells, 7 days
Protocol: as §1, §2

| SMILES | pEC50 (DENV-1 strain TC974#666) | pEC50 (DENV-2 NGC-Tongalike) | pEC50 [1] |
| --- | --- | --- | --- |
| COc1cc(NC(C(=O)c2c[nH]c3c(F)c(F)ccc23)c2ccc(Cl)cc2OC)cc(OCCO)c1 (single isomer, unassigned) [Compound 11B, 2-(4-chloro-2-methoxyphenyl)-1-(6,7-difluoro-1H-indol-3-yl)-2-((3-(2-hydroxyethoxy)-5-methoxyphenyl)amino)ethanone] | 7.74 | 9.57 | 7.59 |
| COc1cc(NC(C(=O)c2c[nH]c3cc(OC)ccc23)c2ccc(Cl)cc2OC)cc(OCCO)c1 (single isomer, unassigned) [Compound 5A, 2-(4-chloro-2-methoxyphenyl)-2-((3-(2-hydroxyethoxy)-5-methoxyphenyl)amino)-1-(6-methoxy-1H-indol-3-yl)ethanone] | 7.89 | > 9.40 | 7.60 |
| COc1cc(NC(C(=O)c2c[nH]c3c(C)c(F)ccc23)c2ccc(Cl)cc2OC)cc(OCCO)c1 (single isomer, unassigned) [Compound 2A, 2-(4-chloro-2-methoxyphenyl)-1-(6-fluoro-7-methyl-1H-indol-3-yl)-2-((3-(2-hydroxyethoxy)-5-methoxyphenyl)amino)ethanone] | 8.15 | 9.40 | 7.68 |
| COc1cc(NC(C(=O)c2c[nH]c3cc(Cl)ccc23)c2ccc(Cl)cc2OC)cc(OCCO)c1 (single isomer, unassigned) [Compound 4A, 1-(6-chloro-1H-indol-3-yl)-2-(4-chloro-2-methoxyphenyl)-2-((3-(2-hydroxyethoxy)-5-methoxyphenyl)amino)ethanone] | 8.11 | > 9.47 | 7.54 |
| COc1cc(NC(C(=O)c2c[nH]c3c(C)c(Cl)ccc23)c2ccc(Cl)cc2OC)cc(OCCO)c1 (single isomer, unassigned) [Compound 3A, 2-(4-chloro-2-methoxyphenyl)-1-(6-chloro-7-methyl-1H-indol-3-yl)-2-((3-(2-hydroxyethoxy)-5-methoxyphenyl)amino)ethanone] | 8.28 | > 9.48 | 7.70 |
| COc1cc(NC(C(=O)c2c[nH]c3cc(F)c(F)cc23)c2ccc(Cl)cc2OC)cc(OCCO)c1 (single isomer, unassigned) [Compound 9A, 2-(4-chloro-2-methoxyphenyl)-1-(5,6-difluoro-1H-indol-3-yl)-2-((3-(2-hydroxyethoxy)-5-methoxyphenyl)amino)ethanone] | 8.30 | > 9.51 | 7.74 |
| COc1cc(NC(C(=O)c2c[nH]c3cc(OC)c(F)cc23)c2ccc(Cl)cc2OC)cc(OCCO)c1 (single isomer, unassigned) [Compound 7A, 2-(4-chloro-2-methoxyphenyl)-1-(5-fluoro-6-methoxy-1H-indol-3-yl)-2-((3-(2-hydroxyethoxy)-5-methoxyphenyl)amino)ethanone] | 7.80 | 9.57 | > 7.77 |
| COc1cc(NC(C(=O)c2c[nH]c3cc(OC)c(C)cc23)c2ccc(Cl)cc2OC)cc(OCCO)c1 (single isomer, unassigned) [Compound 6A, 2-(4-chloro-2-methoxyphenyl)-2-((3-(2-hydroxyethoxy)-5-methoxyphenyl)amino)-1-(6-methoxy-5-methyl-1H-indol-3-yl)ethanone] | 8.44 | 9.40 | > 7.82 |
| COc1cc(NC(C(=O)c2c[nH]c3cc(F)ccc23)c2ccc(Cl)cc2OC)cc(OCCO)c1 (single isomer, unassigned) [Compound 1A, 2-(4-chloro-2-methoxyphenyl)-1-(6-fluoro-1H-indol-3-yl)-2-((3-(2-hydroxyethoxy)-5-methoxyphenyl)amino)ethanone] | 8.11 | 9.42 | > 7.82 |
| COc1cc(NC(C(=O)c2c[nH]c3c(F)cc(C)cc23)c2ccc(Cl)cc2OC)cc(OCCO)c1 (single isomer, unassigned) [Compound 10A, 2-(4-chloro-2-methoxyphenyl)-1-(7-fluoro-5-methyl-1H-indol-3-yl)-2-((3-(2-hydroxyethoxy)-5-methoxyphenyl)amino)ethanone] | 7.85 | 8.85 | 7.57 |
| COc1cc(NC(C(=O)c2c[nH]c3c(C)cc(F)cc23)c2ccc(Cl)cc2OC)cc(OCCO)c1 (single isomer, unassigned) [Compound 8A, 2-(4-chloro-2-methoxyphenyl)-1-(5-fluoro-7-methyl-1H-indol-3-yl)-2-((3-(2-hydroxyethoxy)-5-methoxyphenyl)amino)ethanone] | 8.02 | 8.85 | 7.49 |

Reference: patent publication US9944598B2, “Mono- or di-substituted indole derivatives as dengue viral replication inhibitors” (priority 2014, dated 2018)
